Patent US6573060B1, “Methods and compositions for targeting DNA metabolic processes using aminoglycoside derivatives” (University of Virginia Patent Foundation, priority 1997, dated 2003)

Key:
DNA-dependent ATPase A = target: T1, DNA-dependent ATPase A (Bos taurus, UniProt Q9TTA5); experiment: Inhibition of ATP hydrolysis by DNA-dependent ATPase A (overexpressed 82 kDa ADAAD); format: biochemical, bovine; settings: Ki, Table 4; determined in the presence of effector
T1 sequence (Q9TTA5 222-940): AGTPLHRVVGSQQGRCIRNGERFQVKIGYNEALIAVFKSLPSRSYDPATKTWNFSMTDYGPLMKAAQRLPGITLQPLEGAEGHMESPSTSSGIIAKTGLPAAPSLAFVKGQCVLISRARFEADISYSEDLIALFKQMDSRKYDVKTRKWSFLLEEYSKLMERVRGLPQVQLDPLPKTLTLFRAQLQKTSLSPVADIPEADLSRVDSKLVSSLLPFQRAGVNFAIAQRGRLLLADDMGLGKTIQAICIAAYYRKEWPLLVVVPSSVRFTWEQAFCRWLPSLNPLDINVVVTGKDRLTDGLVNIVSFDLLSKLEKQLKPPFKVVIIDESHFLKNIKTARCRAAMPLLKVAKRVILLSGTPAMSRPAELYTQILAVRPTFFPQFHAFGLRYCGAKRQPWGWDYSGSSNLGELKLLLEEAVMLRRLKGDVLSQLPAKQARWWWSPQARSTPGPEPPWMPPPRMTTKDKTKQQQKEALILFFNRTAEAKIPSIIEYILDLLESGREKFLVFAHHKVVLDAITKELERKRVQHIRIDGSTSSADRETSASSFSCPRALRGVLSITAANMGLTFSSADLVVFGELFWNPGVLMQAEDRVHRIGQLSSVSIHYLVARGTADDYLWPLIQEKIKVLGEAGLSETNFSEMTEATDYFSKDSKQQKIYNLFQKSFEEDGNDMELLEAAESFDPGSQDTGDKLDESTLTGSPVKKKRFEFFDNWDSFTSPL
Protocol: Enzyme (0.2 units (one unit is the amount of enzyme required to hydrolyze 1 μmole of adenosine triphosphate per min)) was mixed with 50 mM Tris-SO4, pH 7.5, 1 mM MgCl2, 5 mM β-mercaptoethanol, 0.5 mg/mL bovine serum albumin, 2 mM phosphoenol pyruvate, 0.03 mg/mL pyruvate kinase, 10 nM of stem-loop DNA, and 2 mM adenosine triphosphate in a total volume of 100 μL. The reaction was typically incubated at 37° C. for 10-60 minutes. At the end of the designated time, 225 μL of 10% sodium dodecyl sulfate and 350 μL of water were added to stop the reaction. Color development requires the addition of two reagents: 180 μL of reagent A (prepared by mixing equal volumes of 60 to 70% perchloric acid and 5% ammonium molybdate in water) and 45 μL of reagent B (0.2 g 1:2:4 aminonaphthol sulfonic acid, 12.0 g sodium metabisulfite, and 2.4 g sodium sulfite dissolved in 100 mL of water) was added. The reaction was incubated at room temperature for 10 minutes and the absorbance was read at 720 nm. The color development was time-dependent and therefore samples must be read at exactly 10 minutes.
Enzyme (0.2 units (one unit is the amount of enzyme required to hydrolyze 1 μmole of adenosine triphosphate per min)) was mixed with 25 mM Tris-acetate pH 7.5, 6 mM Mg(acetate)2, 60 mM KCl, 5 mM β-mercaptoethanol, 3 mM phosphoenol pyruvate, 10 units/mL pyruvate kinase, 10 units/mL lactate dehydrogenase 10 nM DNA, 2 mM adenosine triphosphate, and 0.1 mg/mL NADH in a final volume of 1 mL. The progress of the reaction at 37° C. was monitored at 340 nm using an HP8452 spectrophotometer.
Enzyme (0.2 U) was mixed with 50 mM Tris-SO4, pH 7.5, 1 mM MgCl2, 5 mM β-mercaptoethanol, 0.5 mg/mL bovine serum albumin, 2 mM phosphoenol pyruvate, 0.03 mg/mL pyruvate kinase, 10 nM of stem-loop DNA, and 2 mM adenosine triphosphate in a total volume of 50 μL. Three (3) μCi of [^32P]-γ-adenosine triphosphate was added to the reaction and typical incubation was for 60 minutes 37° C. EDTA (25 mM) was added to stop the reaction. 10 μL of the reaction was spotted on a poly(ethylenimine)-cellulose plate. The plate was developed using 0.9M LiCl and 7M urea as solvent system. The plate was allowed to dry and autoradiographed either using X-OMAT film or a phosphorimager. […]

DNA-independent ATPases = experiment: Effect on DNA-independent ATPases; format: biochemical
Protocol: (§1) A number of different ATPases, both DNA-dependent and DNA-independent, were analyzed for their behavior with respect to these drugs.

DNA-dependent ATPases = experiment: Effect of millimolar neomycin on DNA-dependent ATPases; format: biochemical; settings: millimolar concentrations
Protocol: as §1
This inhibition is directly attributable to the positive charge that the aminoglycosides carry and thus the sequestering of the DNA (negatively charged) away from the enzyme (the binding of kanamycin directly to DNA has been confirmed—data not shown). In addition, the phosphoneomycin has differing effects on DNA-dependent ATPases from various sources and of various function.

PC3 cell line = experiment: MTS cell survival assay, PC3 prostate cancer cells; format: cell-based, human
Protocol: (§2) The effect of phosphoaminoglycosides on tumor cell growth was tested in cell culture inhibition studies. 5000 cells were plated in a total volume of 50 μl in a 96 well titer plate. After 24 hours, 50 μl of media and drugs, to the required final concentration, were added. The plates were incubated at 37° C. for 5 days. On the 5th day, the fraction of surviving cells was estimated using a non-radioactive cell proliferation assay (CellTiter 96 AQueous Cell Proliferation Assay from Promega).
(§3) This is a colorimetric assay that determines the number of viable cells. The assay measures the bioreduction of a tetrazolium compound (3-(4,5-dimethylthiazol-2-yl)-5-(3-carboxymethoxyphenyl)-2-(4-sulfophenyl)-2H-tetrazolium, inner salt; MTS), via an electron coupling reagent (phenazine methosulfate; PMS), to formazan, which is soluble in the tissue culture medium. The absorbance of formazan at 490 nm can be measured from the 96 well assay plate without additional processing. The conversion of MTS into the aqueous soluble formazan is accomplished by dehydrogenase enzymes found in metabolically active cells. The quantity of formazan product as measured by the amount of 490 nm absorbance is directly proportional to the number of living cells in culture. 100 μl of the PMS reagent (Promega) was mixed with 2.0 ml of MTS solution (Promega). 20 μl of PMS/MTS solution was added to the cells and the plates were incubated at 37° C. for 2 hours before measuring the absorbance at 490 nm.
In an initial experiment, four drugs (A-kanamycin, B-phosphokanamycin, C-neomycin, and D-phosphoneomycin) were added to prostate cancer cell cultures in a blind fashion. Two prostate cancer cell lines were incubated with each of the drugs and assayed for cell survivability using the MTS assay (Promega).
5000 cells were grown overnight in media and each respective drug (A-kanamycin, B-phosphokanamycin, C-neomycin, and D-phosphoneomycin) was added on the second day. […] Each point is the average of readings from three wells.

MCF-7 = experiment: MTS cell survival assay, MCF-7 breast cancer cells; format: cell-based; settings: MCF-7, FIG. 9
Protocol: as §2
as §3, with “100 μl of the PMS reagent (Promega) was mixed with 2.0 ml of MTS solution (Promega).” left out, “nm. […]” for “nm.”

MDA-MB-231 = experiment: MTS cell survival assay, MDA-MB-231 breast cancer cells; format: cell-based; settings: MDA-MB-231, FIG. 9
Protocol: as §2
as §3, with “100 μl of the PMS reagent (Promega) was mixed with 2.0 ml of MTS solution (Promega).” left out, “nm. […]” for “nm.”

Compound: NCC[C@H](O)C(=O)N[C@@H]1C[C@H](N)[C@@H](O[C@H]2O[C@H](CN)[C@@H](O)[C@H](OP(=O)(O)O)[C@H]2O)[C@H](O)[C@H]1O[C@H]1O[C@H](CO)[C@@H](O)[C@H](N)[C@H]1O [3′ phosphorylated amikacin]
- Ki (DNA-dependent ATPase A): 167 nM

Compound: CN[C@@H]1[C@@H](O)[C@@H](O[C@@H]2[C@@H](O)[C@H](O[C@H]3O[C@H](CO)[C@@H](O)[C@H](OP(=O)(O)O)[C@H]3N)[C@@H](N)C[C@H]2N)OC[C@H]1O [3′ phosphorylated gentamicin]
- Ki (DNA-dependent ATPase A): 219 nM

Compound: CN[C@@H]1[C@@H](O)[C@@H](O[C@@H]2[C@@H](O)[C@H](O[C@H]3O[C@H]([C@@H](C)O)[C@@H](O)[C@H](OP(=O)(O)O)[C@H]3N)[C@@H](N)C[C@H]2N)OC[C@]1(C)O [phosphogeneticin, 3′-phosphogeneticin]
- Ki (DNA-dependent ATPase A): 191 nM

Compound: Neomycin B & C (^˜15% Neomycin C) [reference compound]
- effect on DNA-independent ATPases (in words) (DNA-independent ATPases): neither affected
- inhibition of all DNA-dependent ATPases (in words) (DNA-dependent ATPases): some inhibition
- effect on PC3 cells (in words) (PC3 cell line; FIG. 8, day five): neither kanamycin nor neomycin had any effect
- effect on PC3 cell survival (in words) (PC3 cell line; concentrations in excess of 1 mM): increased cell survival
- effect on cell growth (in words) (MCF-7): no effect
- effect on cell growth (in words) (MDA-MB-231): no effect
